Reference: patent publication US9862749B2, “Analogue peptide CMA3 derived from CM-MA peptide and use thereof” (Industry-Academic Cooperation Foundation, Chosun University, priority 2014, dated 2018)
Converted amounts (≈) assume the structure as drawn. Peptide text beside a SMILES is read from it.

How the values were obtained:
Assay type in all cases: cell-based
Salmonella typhimurium = conditions: 12 h
Protocol: (§1) To compare the antibacterial activities among those peptides prepared by the method of Example 1 of the invention, the inventors measured MIC (minimal inhibitory concentration) of the peptide which is the minimum concentration for staying without being broken.
(§2) Particularly, the strains listed in Table 2 were purchased and cultured in each medium composed as instructed until the mid-log phase. The cells were diluted at the density of 5×10^5 cells/100 μl, which were then inoculated in a micro-titrate plate (Nunc, USA). Then, the CMA1, CMA2, CMA3, CMA4, CMA5, or CMA6 peptide synthesized in Example 1 was ½ fold diluted in each 96 well plate, and then added to the plate, followed by culture at 37° C. for 12 hours. OD620 was measured with a micro-titrate plate reader (Merck Elisa reader, Germany) to determine MIC for each strain. As for the control, the mother peptide CM-MA was treated by the same manner as described above and MIC was also determined.

Listeria monocytogenes = conditions: 12 h
Protocol: as §1, §2

[1] = tested on: Staphylococcus epidermidis; conditions: 12 h
Protocol: as §1, §2

Escherichia coli = conditions: 12 h
Protocol: as §1, §2

Staphylococcus aureus = conditions: 12 h
Protocol: as §1, §2

Pseudomonas aeruginosa = conditions: 12 h
Protocol: as §1, §2

in vitro = conditions: human, HaCaT cells (human keratinocyte cell line)
Protocol: To investigate the cytotoxicity of each peptide prepared by the method of Example 1 to human keratinocyte cell line (HaCaT cell line, Dr. N E. Fusenig, Heidelberg, Germany) was measured.
Particularly, the HaCaT cell line cultured in DMEM supplemented with 10% FBS (Fetal Bovine Serum) was distributed in a 96-well plate at the density of 3×10^3 cells/well, followed by culture for 24 hours. The CM-MA, CMA1, CMA2, CMA3, CMA4, CMA5, or CMA6 peptide prepared in Example 1 was treated to each well at the concentration of 12.5, 25.0, 50.0, 100.0, or 200.0 μM/well, followed by reaction in a 5% CO2 incubator for 24 hours. Upon completion of the culture, 20 ul of the reaction solution containing 5 mg/ml MTT (Thiazolyl Blue Tetrazolium Bromide) dissolved in PBS (phosphate buffered saline) was added to each well, followed by reaction for 4 hours. Then, the supernatant was eliminated.

Compound | Minimal inhibitory concentration (Salmonella typhimurium) | Minimal inhibitory concentration (Listeria monocytogenes) | Minimal inhibitory concentration [1] | Minimal inhibitory concentration (Escherichia coli) | Minimal inhibitory concentration (Staphylococcus aureus) | Minimal inhibitory concentration (Pseudomonas aeruginosa) | viability at 24 h, 200 µM (in vitro)
CC[C@H](C)[C@H](NC(=O)CNC(=O)[C@@H](NC(=O)[C@H](CCCCN)NC(=O)[C@H](CCCCN)NC(=O)[C@H](Cc1ccccc1)NC(=O)[C@H](CC(C)C)NC(=O)[C@H](CCCCN)NC(=O)[C@H](Cc1c[nH]c2ccccc12)NC(=O)[C@@H](N)CCCCN)[C@@H](C)CC)C(=O)NCC(=O)N[C@@H](CCCCN)C(=O)N[C@@H](Cc1ccccc1)C(=O)N[C@@H](CC(C)C)C(=O)N[C@@H](Cc1c[nH]cn1)C(=O)N[C@@H](CO)C(=O)N[C@@H](C)C(=O)N[C@@H](CCCCN)C(=O)N[C@@H](CCCCN)C(=O)N[C@@H](Cc1ccccc1)C(N)=O [CA-MA, reference compound] (H-KWKLFKKIGIGKFLHSAKKF-NH2) | 1 µM (≈ 2.4 µg/mL) | 0.5 µM (≈ 1.2 µg/mL) | 8 µM (≈ 19.2 µg/mL) | 2 µM (≈ 4.81 µg/mL) | 8 µM (≈ 19.2 µg/mL) | 1 µM (≈ 2.4 µg/mL) | 1.4%
CC[C@H](C)[C@H](NC(=O)CNC(=O)[C@@H](NC(=O)[C@H](CCCCN)NC(=O)[C@H](CCCCN)NC(=O)[C@H](Cc1ccccc1)NC(=O)[C@H](CC(C)C)NC(=O)[C@H](CCCCN)NC(=O)[C@H](Cc1c[nH]c2ccccc12)NC(=O)[C@@H](N)CCCCN)[C@@H](C)CC)C(=O)NCC(=O)N[C@@H](CCCCN)C(=O)N[C@@H](Cc1c[nH]cn1)C(=O)N[C@@H](Cc1ccccc1)C(=O)N[C@@H](CC(C)C)C(=O)N[C@@H](CO)C(=O)N[C@@H](C)C(=O)N[C@@H](CCCCN)C(=O)N[C@@H](CCCCN)C(=O)N[C@@H](Cc1ccccc1)C(N)=O [CMA1] (H-KWKLFKKIGIGKHFLSAKKF-NH2) | 1 µM (≈ 2.4 µg/mL) | 4 µM (≈ 9.62 µg/mL) | 32 µM (≈ 76.9 µg/mL) | 8 µM (≈ 19.2 µg/mL) | 16 µM (≈ 38.5 µg/mL) | 8 µM (≈ 19.2 µg/mL) | 51.1%
CC[C@H](C)[C@H](NC(=O)CNC(=O)[C@@H](NC(=O)[C@H](CCCCN)NC(=O)[C@H](CCCCN)NC(=O)[C@H](Cc1ccccc1)NC(=O)[C@H](CC(C)C)NC(=O)[C@H](CCCCN)NC(=O)[C@H](Cc1c[nH]c2ccccc12)NC(=O)[C@@H](N)CCCCN)[C@@H](C)CC)C(=O)NCC(=O)N[C@@H](CCCCN)C(=O)N[C@@H](Cc1ccccc1)C(=O)N[C@@H](CC(C)C)C(=O)N[C@@H](CO)C(=O)N[C@@H](C)C(=O)N[C@@H](Cc1c[nH]cn1)C(=O)N[C@@H](CCCCN)C(=O)N[C@@H](CCCCN)C(=O)N[C@@H](Cc1ccccc1)C(N)=O [CMA2] (H-KWKLFKKIGIGKFLSAHKKF-NH2) | 1 µM (≈ 2.4 µg/mL) | 1 µM (≈ 2.4 µg/mL) | 16 µM (≈ 38.5 µg/mL) | 2 µM (≈ 4.81 µg/mL) | 32 µM (≈ 76.9 µg/mL) | 4 µM (≈ 9.62 µg/mL) | 
CC[C@H](C)[C@H](NC(=O)CNC(=O)[C@@H](NC(=O)[C@H](Cc1c[nH]cn1)NC(=O)[C@H](CCCCN)NC(=O)[C@H](CCCCN)NC(=O)[C@H](CC(C)C)NC(=O)[C@H](CCCCN)NC(=O)[C@H](Cc1c[nH]c2ccccc12)NC(=O)[C@@H](N)CCCCN)[C@@H](C)CC)C(=O)NCC(=O)N[C@@H](CCCCN)C(=O)N[C@@H](Cc1c[nH]cn1)C(=O)N[C@@H](Cc1ccccc1)C(=O)N[C@@H](CC(C)C)C(=O)N[C@@H](CO)C(=O)N[C@@H](C)C(=O)N[C@@H](CCCCN)C(=O)N[C@@H](CCCCN)C(=O)N[C@@H](Cc1ccccc1)C(N)=O [CMA3] (H-KWKLKKHIGIGKHFLSAKKF-NH2; N-terminus assumed) | 1 µM (≈ 2.39 µg/mL) | 2 µM (≈ 4.79 µg/mL) | 64 µM (≈ 153 µg/mL) | 4 µM (≈ 9.58 µg/mL) | 32 µM (≈ 76.6 µg/mL) | 8 µM (≈ 19.2 µg/mL) | 92.4%
CC[C@H](C)[C@H](NC(=O)CNC(=O)[C@@H](NC(=O)[C@H](CCCCN)NC(=O)[C@H](CCCCN)NC(=O)[C@H](CC(C)C)NC(=O)[C@H](Cc1c[nH]cn1)NC(=O)[C@H](CCCCN)NC(=O)[C@H](Cc1c[nH]c2ccccc12)NC(=O)[C@@H](N)CCCCN)[C@@H](C)CC)C(=O)NCC(=O)N[C@@H](CCCCN)C(=O)N[C@@H](Cc1ccccc1)C(=O)N[C@@H](CC(C)C)C(=O)N[C@@H](CO)C(=O)N[C@@H](C)C(=O)N[C@@H](Cc1c[nH]cn1)C(=O)N[C@@H](CCCCN)C(=O)N[C@@H](CCCCN)C(=O)N[C@@H](Cc1ccccc1)C(N)=O [CMA4] (H-KWKHLKKIGIGKFLSAHKKF-NH2) | 1 µM (≈ 2.39 µg/mL) | 2 µM (≈ 4.79 µg/mL) | 32 µM (≈ 76.6 µg/mL) | 4 µM (≈ 9.58 µg/mL) | 32 µM (≈ 76.6 µg/mL) | 16 µM (≈ 38.3 µg/mL) | 64.5%
CC[C@H](C)[C@H](NC(=O)CNC(=O)[C@@H](NC(=O)[C@H](CCCCN)NC(=O)[C@H](CCCCN)NC(=O)[C@H](CC(C)C)NC(=O)[C@H](Cc1c[nH]cn1)NC(=O)[C@H](CCCCN)NC(=O)[C@H](Cc1c[nH]c2ccccc12)NC(=O)[C@@H](N)CCCCN)[C@@H](C)CC)C(=O)NCC(=O)N[C@@H](CCCCN)C(=O)N[C@@H](Cc1c[nH]cn1)C(=O)N[C@@H](Cc1ccccc1)C(=O)N[C@@H](CC(C)C)C(=O)N[C@@H](CO)C(=O)N[C@@H](C)C(=O)N[C@@H](CCCCN)C(=O)N[C@@H](CCCCN)C(=O)N[C@@H](Cc1ccccc1)C(N)=O [CMA5] (H-KWKHLKKIGIGKHFLSAKKF-NH2) | 1 µM (≈ 2.39 µg/mL) | 2 µM (≈ 4.79 µg/mL) | 64 µM (≈ 153 µg/mL) | 8 µM (≈ 19.2 µg/mL) | 32 µM (≈ 76.6 µg/mL) | 16 µM (≈ 38.3 µg/mL) | 78.9%
CC[C@H](C)[C@H](NC(=O)CNC(=O)[C@@H](NC(=O)[C@H](CCCCN)NC(=O)[C@H](CCCCN)NC(=O)[C@H](Cc1ccccc1)NC(=O)[C@H](CC(C)C)NC(=O)[C@H](CCCCN)NC(=O)[C@H](Cc1c[nH]c2ccccc12)NC(=O)[C@@H](N)CCCCN)[C@@H](C)CC)C(=O)NCC(=O)N[C@@H](CCCCN)C(=O)N[C@@H](Cc1ccccc1)C(=O)N[C@@H](CC(C)C)C(=O)N[C@@H](CCC(N)=O)C(=O)N[C@@H](CO)C(=O)N[C@@H](C)C(=O)N[C@@H](CCCCN)C(=O)N[C@@H](CCCCN)C(=O)N[C@@H](Cc1ccccc1)C(N)=O [CMA6] (H-KWKLFKKIGIGKFLQSAKKF-NH2; N-terminus assumed) | 1 µM (≈ 2.4 µg/mL) | 1 µM (≈ 2.4 µg/mL) | 8 µM (≈ 19.2 µg/mL) | 4 µM (≈ 9.58 µg/mL) | 16 µM (≈ 38.3 µg/mL) | 4 µM (≈ 9.58 µg/mL) | 
